The text below walks through data of ChEMBL document CHEMBL4609985, “Superior inhibition of influenza virus hemagglutinin-mediated fusion by indole-substituted spirothiazolidinones” (Bioorg Med Chem, 2020).

Test [1] can be described thus: Inhibition of Influenza A virus H3N2 A/X-31 hemagglutinin 3 E572K mutant expressed in HeLa cells assessed as polykaryon formation preincubated for 15 mins and further incubated for 15 mins with acidic buffer containing compounds at pH 5.2 by giemsa staining based microscopic analysis. Format: cell-based, Influenza A virus (A/X-31(H3N2)).
Test [2] in a line: Inhibition of Influenza A virus H3N2 A/X-31 hemagglutinin 3 D1122N expressed in HeLa cells assessed as polykaryon formation preincubated for 15 mins and further incubated for 15 mins with acidic buffer containing compounds at pH 5.6 by giemsa staining based microscopic analysis. Format: cell-based, Influenza A virus (A/X-31(H3N2)).

The structures appear in SMILES notation. Some results are limits rather than exact numbers.

What is called EC50 is the concentration at which the effect is half-maximal. On to `Cc1c(C(=O)NN2C(=O)C(C)SC23CCCC(C)C3)[nH]c2ccc(Cl)cc12` (centres undefined), for which the EC50 in test [1] and in test [2] was above 25 µM each time.
As to `CCOC(=O)c1c(CSc2ccccc2)n(C)c2cc(Br)c(O)c(CN(C)C)c12` [UMIFENOVIR], the EC50 in test [1] and in test [2] was above 200 µM in each case.
For `CC(C)(C)c1cc(O)ccc1O` [E319], the EC50 in test [1] is 12 µM; in test [2] it was above 400 µM.
The corresponding values for `Cc1nc2sccn2c1C(=O)NN1C(=O)C(C)SC12CCC(C)CC2` (centres undefined) are 9 µM and above 25 µM.
The corresponding values for `CCC1CCC2(CC1)SC(C)C(=O)N2NC(=O)c1[nH]c2ccc(Cl)cc2c1C` (centres undefined) are above 25 µM and at least 21 µM.
Take `Cc1c(C(=O)NN2C(=O)C(C)SC23CCCCC3)[nH]c2ccc(Cl)cc12` (centres undefined): the EC50 in test [1] and in test [2] was above 25 µM throughout.
For the compound `Cc1c(C(=O)NN2C(=O)C(C)SC23CCC(C)CC3)[nH]c2ccc(Cl)cc12` (centres undefined), the EC50 was at least 13 µM in test [1] and above 25 µM in test [2].
